Experimental data taken from PubChem BioAssay AID330 (DTP/NCI, 2004).
Several values for one entry are separate records, joined by “and”; a condition that tells them apart may be missing. Equal entries are not always repeated. Inconclusive results and toxic doses are left out.

Test system: P388 leukemia ip, CD2F1 mice, survival T/C
Test: NCI In Vivo Anticancer Drug Screen. Data for tumor model P388 Leukemia (intraperitoneal) in CD2F1 (CDF1) mice
Details: endpoint: median survival time, higher = longer survival
In short: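 Mice carrying the transplanted tumor received test compound or vehicle. Survival was recorded in each group, and the value is the treated-group measurement divided by that of the vehicle-treated control group.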

[1] = dose: 30.0 mg/kg/injection, schedule: Q01DX005 (ip), vehicle: saline with Tween-80
[2] = dose: 60.0 mg/kg/injection, schedule: Q01DX005 (ip), vehicle: saline with Tween-80
[3] = dose: 120.0 mg/kg/injection, schedule: Q01DX005 (ip), vehicle: saline with Tween-80
[4] = dose: 50.0 mg/kg/injection, schedule: Q01DX009 (ip), vehicle: Klucel (hydroxypropylcellulose) (HPC)
[5] = dose: 100.0 mg/kg/injection, schedule: Q01DX009 (ip), vehicle: Klucel (hydroxypropylcellulose) (HPC)
[6] = dose: 200.0 mg/kg/injection, schedule: Q01DX009 (ip), vehicle: Klucel (hydroxypropylcellulose) (HPC)
[7] = dose: 100.0 mg/kg/injection, schedule: Q01DX009 (ip), vehicle: saline with Tween-80
[8] = dose: 200.0 mg/kg/injection, schedule: Q01DX009 (ip), vehicle: saline with Tween-80
[9] = dose: 60.0 mg/kg/injection, schedule: Q01DX005 (ip), vehicle: Klucel (hydroxypropylcellulose) (HPC)
[10] = dose: 120.0 mg/kg/injection, schedule: Q01DX005 (ip), vehicle: Klucel (hydroxypropylcellulose) (HPC)
[11] = dose: 100.0 mg/kg/injection, schedule: Q04DX003 (ip), vehicle: saline with Tween-80
[12] = dose: 50.0 mg/kg/injection, schedule: Q01DX009 (ip), vehicle: saline with Tween-80
[13] = dose: 50.0 mg/kg/injection, schedule: Q01DX009 (ip), vehicle: saline
[14] = dose: 100.0 mg/kg/injection, schedule: Q01DX009 (ip), vehicle: saline
[15] = dose: 25.0 mg/kg/injection, schedule: Q01DX009 (ip), vehicle: Klucel (hydroxypropylcellulose) (HPC)
[16] = dose: 50.0 mg/kg/injection, schedule: Q01DX005 (ip), vehicle: saline
[17] = dose: 100.0 mg/kg/injection, schedule: Q01DX005 (ip), vehicle: saline
[18] = dose: 200.0 mg/kg/injection, schedule: Q01DX005 (ip), vehicle: saline
[19] = dose: 25.0 mg/kg/injection, schedule: Q01DX009 (ip), vehicle: saline with Tween-80

CC(O)/C(=N\Nc1ccccc1)c1nc2ccccc2[nH]c1=O (configuration not stated)
T/C [1]: 92 % of control
T/C [2]: 89 % of control
T/C [3]: 88 % of control

CCCC/C=C\CCCCCCCCCC1=C(O)C(=O)C=C(OC)C1=O
T/C (dose: 25.5 mg/kg/injection, schedule: Q01DX005 (ip), vehicle: Klucel (hydroxypropylcellulose) (HPC)): 116 % of control

CN1CCC/C1=C/C(=O)c1cccc([N+](=O)[O-])c1
T/C (dose: 100.0 mg/kg/injection, schedule: Q04DX003 (ip), vehicle: Klucel (hydroxypropylcellulose) (HPC)): 108 % of control
T/C (dose: 200.0 mg/kg/injection, schedule: Q04DX003 (ip), vehicle: Klucel (hydroxypropylcellulose) (HPC)): 106 % of control

O=C(O)CCN1C(=S)CSC1=S
T/C [4]: 107 % of control
T/C [5]: 103 % of control
T/C [6]: 100 % of control

Nc1ccc(-c2nnc(-c3ccc(N)cc3)nn2)cc1
T/C (dose: 100.0 mg/kg/injection, schedule: Q01DX001 (ip), vehicle: saline): 94 % of control
T/C (dose: 200.0 mg/kg/injection, schedule: Q01DX001 (ip), vehicle: saline): 92 % of control
T/C (dose: 400.0 mg/kg/injection, schedule: Q01DX001 (ip), vehicle: saline): 95 % of control

Cc1c2ccncc2c(C)c2c1[nH]c1ccc(-c3ccccc3)cc12
T/C (dose: 20.0 mg/kg/injection, schedule: Q01DX001 (ip), vehicle: saline with Tween-80): 102 % of control
T/C (dose: 40.0 mg/kg/injection, schedule: Q01DX001 (ip), vehicle: saline with Tween-80): 100 % of control
T/C (dose: 80.0 mg/kg/injection, schedule: Q01DX001 (ip), vehicle: saline with Tween-80): 99 % of control

O=C1CS(=O)(=O)C(c2ccccc2F)N1N1C(=O)CS(=O)(=O)C1c1ccccc1F (configuration not stated)
T/C (dose: 15.0 mg/kg/injection, schedule: Q01DX005 (ip), vehicle: saline with Tween-80): 98 % of control and 87 % of control
T/C [1]: 89 % of control
T/C [2]: 87 % of control and 89 % of control

C=CC(=NC(C)(C)C)Nc1cccc(Cl)c1
T/C (dose: 6.25 mg/kg/injection, schedule: Q04DX003 (ip), vehicle: saline): 98 % of control
T/C (dose: 12.5 mg/kg/injection, schedule: Q04DX003 (ip), vehicle: saline): 102 % of control
T/C (dose: 25.0 mg/kg/injection, schedule: Q04DX003 (ip), vehicle: saline): 100 % of control

COc1ccc2c(c1)c(C(=O)O)cc(=O)n2C
T/C [7]: 95 % of control
T/C [8]: 90 % of control
T/C (dose: 400.0 mg/kg/injection, schedule: Q01DX009 (ip), vehicle: saline with Tween-80): 90 % of control

Cc1csc2nc(-c3ccco3)nn12
T/C [9]: 107 % of control
T/C [10]: 107 % of control

CC(C)N(C(=O)COc1ccc(Cl)cc1Cl)c1ccccc1
T/C [11]: 104 % of control
T/C (dose: 200.0 mg/kg/injection, schedule: Q04DX003 (ip), vehicle: saline with Tween-80): 100 % of control
T/C (dose: 400.0 mg/kg/injection, schedule: Q04DX003 (ip), vehicle: saline with Tween-80): 100 % of control

N#CCc1nc2ncc(Br)cc2[nH]1
T/C (dose: 100.0 mg/kg/injection, schedule: Q01DX001 (ip), vehicle: saline with Tween-80): 100 % of control
T/C (dose: 200.0 mg/kg/injection, schedule: Q01DX001 (ip), vehicle: saline with Tween-80): 104 % of control
T/C (dose: 400.0 mg/kg/injection, schedule: Q01DX001 (ip), vehicle: saline with Tween-80): 100 % of control

CC(C)(C)c1cc(CO)c(Sc2c(CO)cc(C(C)(C)C)cc2CO)c(CO)c1
T/C (dose: 12.5 mg/kg/injection, schedule: Q01DX001 (ip), vehicle: saline with Tween-80): 92 % of control
T/C (dose: 25.0 mg/kg/injection, schedule: Q01DX001 (ip), vehicle: saline with Tween-80): 100 % of control
T/C (dose: 50.0 mg/kg/injection, schedule: Q01DX001 (ip), vehicle: saline with Tween-80): 95 % of control

CCCC(NC)C(CC)CN (configuration not stated)
T/C [12]: 95 % of control
T/C [7]: 100 % of control

O=S(=O)(Cl)C(F)(F)C(F)(F)F
T/C [13]: 100 % of control
T/C [14]: 110 % of control
T/C (dose: 200.0 mg/kg/injection, schedule: Q01DX009 (ip), vehicle: saline): 103 % of control

Nc1ccc2ccccc2c1-c1c(N)ccc2ccccc12
T/C (dose: 6.25 mg/kg/injection, schedule: Q01DX009 (ip), vehicle: Klucel (hydroxypropylcellulose) (HPC)): 109 % of control
T/C (dose: 12.5 mg/kg/injection, schedule: Q01DX009 (ip), vehicle: Klucel (hydroxypropylcellulose) (HPC)): 91 % of control
T/C [15]: 102 % of control
T/C [4]: 111 % of control

CCN(CC)CCOC1CC(C)CCC1C(C)C (configuration not stated)
T/C [16]: 111 % of control
T/C [17]: 100 % of control
T/C [18]: 100 % of control

O=[N+]([O-])c1ccc(-c2nc(/C=N/N3CCSCC3)cs2)s1
T/C [19]: 100 % of control
T/C [12]: 95 % of control
T/C [7]: 95 % of control

Cn1c(=O)c2nc(-c3ccccc3)c(-c3ccccc3)nc2n(C)c1=O
T/C (dose: 12.5 mg/kg/injection, schedule: Q01DX009 (ip), vehicle: saline with Tween-80): 96 % of control
T/C [19]: 96 % of control
T/C [12]: 107 % of control
T/C [7]: 107 % of control

Cc1nonc1-c1ccc2c(c1)OCO2
T/C [15]: 110 % of control
T/C [4]: 105 % of control
T/C [5]: 106 % of control
T/C [6]: 105 % of control

CC(=O)c1cc[n+](Cc2cc3ccccc3nc2Br)cc1
T/C (dose: 12.5 mg/kg/injection, schedule: Q04DX002 (ip), vehicle: saline): 101 % of control
T/C (dose: 25.0 mg/kg/injection, schedule: Q04DX002 (ip), vehicle: saline): 102 % of control
T/C (dose: 50.0 mg/kg/injection, schedule: Q04DX002 (ip), vehicle: saline): 101 % of control

CN1CCC(CN2c3ccccc3Sc3ccccc32)CC1
T/C [19]: 95 % of control
T/C (dose: 25.0 mg/kg/injection, schedule: Q04DX003 (ip), vehicle: saline with Tween-80): 100 % of control
T/C [12]: 100 % of control
T/C (dose: 50.0 mg/kg/injection, schedule: Q04DX003 (ip), vehicle: saline with Tween-80): 109 % of control
T/C [7]: 95 % of control
T/C [11]: 109 % of control

CC(=O)ON(C(C)=O)C1CCCCC1
T/C [12]: 100 % of control
T/C [7]: 97 % of control
T/C [8]: 98 % of control

Cc1nc(SCC(=O)O)n[nH]1
T/C [12]: 103 % of control
T/C [7]: 103 % of control
T/C [8]: 101 % of control

O=C(Cc1nc2ccccc2[nH]1)N/N=C1\SCC(=O)N1C1CCCCC1
T/C (dose: 100.0 mg/kg/injection, schedule: Q01DX001 (ip), vehicle: Klucel (hydroxypropylcellulose) (HPC)): 98 % of control
T/C (dose: 200.0 mg/kg/injection, schedule: Q01DX001 (ip), vehicle: Klucel (hydroxypropylcellulose) (HPC)): 100 % of control
T/C (dose: 400.0 mg/kg/injection, schedule: Q01DX001 (ip), vehicle: Klucel (hydroxypropylcellulose) (HPC)): 99 % of control

COC(CNC(=O)COc1ccccc1OCC(=O)NCC(OC)OC)OC
T/C [16]: 99 % of control
T/C [17]: 102 % of control
T/C [18]: 102 % of control

O=C1CCC2(CC(Br)C(=O)c3ccccc32)C(=O)N1 (configuration not stated)
T/C [9]: 113 % of control
T/C [10]: 113 % of control

CC(=O)Nc1nc(CC(N)C(=O)O)c[se]1 (configuration not stated)
T/C (dose: 50.0 mg/kg/injection, schedule: Q01DX005 (ip), vehicle: Klucel (hydroxypropylcellulose) (HPC)): 97 % of control
T/C (dose: 100.0 mg/kg/injection, schedule: Q01DX005 (ip), vehicle: Klucel (hydroxypropylcellulose) (HPC)): 97 % of control
T/C (dose: 200.0 mg/kg/injection, schedule: Q01DX005 (ip), vehicle: Klucel (hydroxypropylcellulose) (HPC)): 97 % of control

O=C(NC(CSSCC(NC(=O)c1ccc([N+](=O)[O-])cc1)C(=O)O)C(=O)O)c1ccc([N+](=O)[O-])cc1 (configuration not stated)
T/C (dose: 50.0 mg/kg/injection, schedule: Q01DX005 (ip), vehicle: saline with Tween-80): 108 % of control
T/C (dose: 100.0 mg/kg/injection, schedule: Q01DX005 (ip), vehicle: saline with Tween-80): 101 % of control
T/C (dose: 200.0 mg/kg/injection, schedule: Q01DX005 (ip), vehicle: saline with Tween-80): 109 % of control

O=[N+]([O-])c1cccc(S(=O)(=O)N/N=C/c2cccc([N+](=O)[O-])c2O)c1
T/C [2]: 106 % of control
T/C [3]: 107 % of control
T/C (dose: 240.0 mg/kg/injection, schedule: Q01DX005 (ip), vehicle: saline with Tween-80): 104 % of control

C/C(=N\O)c1cc(/C(C)=N/O)cc(/C(C)=N/O)c1
T/C [13]: 108 % of control
T/C [14]: 92 % of control
